Patent US11578055B2, “Triazacyclododecansulfonamide (“TCD”)-based protein secretion inhibitors” (KEZAR LIFE SCIENCES, priority 2018, dated 2023)
pEC50, pIC50: −log10 of the molar value. Counter-ions that a name gives are not always drawn. Like-named read-outs stand apart in the source and are kept apart here.

Assays:
[1] = In Vitro Microsome Stability Assay (human); assay type: in vitro ADME
Summary of the method: (§1)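 Test article, added from a 0.25 mM DMSO stock, was incubated with liver microsomes (20 mg/mL stock) in 0.1 M potassium phosphate at 37° C, with the reaction started by NADPH. Samples were quenched with acetonitrile containing internal standard at 0 and 30 min and analysed by LC-MS/MS. Values are % remaining at 30 min versus 0 min, using IS-normalised AUC ratios.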

[2] = tested on: multiple myeloma cell line U266B1; test: U266 Cell Viability Assay; assay type: cell-based, human; details: Homo sapiens, U-266, 48 hr
Summary of the method: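 Viability was measured by CellTiter-Glo luminescence after 48 h compound exposure at 37° C, 5% CO2. The cells were U266B1 multiple myeloma cells grown in RPMI 1640 plus 10% FBS. Where stereochemistry is not shown, values apply to the stereoisomer mixture.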

[3] = In Vitro Microsome Stability Assay (mouse); assay type: in vitro ADME
Summary of the method: as §1

[4] = In Vitro Microsome Stability Assay (monkey); assay type: in vitro ADME
Summary of the method: as §1

[5] = In Vitro Microsome Stability Assay (rat); assay type: in vitro ADME
Summary of the method: as §1

[6] = tested on: multiple myeloma cell line NCl-H929; test: H929 Cell Viability Assay; assay type: cell-based, human; details: Homo sapiens, NCI-H929, 48 h
Summary of the method: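 Viability was determined by CellTiter-Glo luminescence after a 48 h, 37 °C exposure of NCI-H929 cells to serial compound dilutions in medium containing 10% FBS. Where stereochemistry is not shown, values refer to a mix of stereoisomers.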

[7] = tested on: full length TNFα (amino acids 1-233) fused to Gaussia Luciferase; test: Dox Induced TNFα-FL-Gluc Assay; assay type: cell-based; details: 24 hr, read-out: 24 hr Dox Inducible TNFaFLGluc 293FRT/TO: Mean IC50
Summary of the method: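 Compounds diluted in DMSO/medium with doxycycline were incubated at 37° C, 5% CO2 with 293 T-REx cells stably carrying a Tet-regulated TNFα(1-233)-Gaussia luciferase construct. Data for structures drawn without stereochemistry refer to stereoisomer mixtures.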

[8] = tested on: PD1 signal sequence plus 10 amino acids fused to Gaussia Luciferase (PD1-ss+10aa/Gaussia Luciferase); test: Dox Induced PD1-ss-Gluc Assay; assay type: cell-based; details: 24 hr, read-out: 24 hr Dox Inducible PD1ssGluc 293FRT/TO: Mean IC50
Summary of the method: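 Compound dilutions in DMSO/media containing doxycycline were applied to a stable, inducible 293 T-REx line carrying the luciferase fusion, then incubated at 37 °C, 5% CO2. Where stereochemistry is not drawn, values relate to isomer mixtures.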

[9] = U266, read-out: 48 hr U266 Viability Celltiter-Glo: Mean EC50
[10] = H929, read-out: 48 hr H929 Viability Celltiter-Glo: Mean EC50

Structure (SMILES) | Liver Microsome Stability-% Left after 30 min w/ NADPH (%) Human ([1]; human, 30 min, NADPH) [%] | pEC50 [2, 9] | Liver Microsome Stability-% Left after 30 min w/ NADPH (%) Mouse ([3]; mouse, 30 min, NADPH) [%] | Liver Microsome Stability-% Left after 30 min w/ NADPH (%) Monkey ([4]; monkey, 30 min, NADPH) [%] | Liver Microsome Stability-% Left after 30 min w/ NADPH (%) Rat ([5]; rat, 30 min, NADPH) [%] | pEC50 [6, 10] | pIC50 ([7]; 293FRT/TO) | pIC50 ([8]; 293FRT/TO) | Liver Microsome Stability-% Left after 30 min w/ NADPH (%) Human ([1]; human liver microsomes, 30 min w/ NADPH) [%] | pEC50 ([2]; U266, Celltiter-Glo) | Liver Microsome Stability-% Left after 30 min w/ NADPH (%) Mouse ([3]; mouse liver microsomes, 30 min w/ NADPH) [%] | Liver Microsome Stability-% Left after 30 min w/ NADPH (%) Monkey ([4]; monkey liver microsomes, 30 min w/ NADPH) [%] | Liver Microsome Stability-% Left after 30 min w/ NADPH (%) Rat ([5]; rat liver microsomes, 30 min w/ NADPH) [%] | pEC50 ([6]; H929, Celltiter-Glo) | pIC50 ([7]; Dox inducible, 293FRT/TO cells) | pIC50 ([8]; Dox inducible, 293FRT/TO cells)
C=C1CN(S(=O)(=O)c2ccc(C)cc2)CCCN(CC2CCCCC2)CCCN(S(=O)(=O)C(C)C)C1 [A7, 9-(cyclohexylmethyl)-1-(4-methylbenzenesulfonyl)-3-methylidene-5-(propane-2-sulfonyl)-1,5,9-triazacyclododecane] | 0.29 | < 4.60 | 0.17 | 0.99 | 0.23 | 4.65 | < 4.60 | 5.64 |  |  |  |  |  |  |  | 
C=C1CN(S(=O)(=O)c2ccc(N(C)C)cc2)CCCN(CC2CCCCC2)CCCN(S(=O)(=O)N2CCN(c3cccc(Cl)c3)CC2)C1 [A84, 4-[(5-{[4-(3-chlorophenyl)piperazin-1-yl]sulfonyl}-9-(cyclohexylmethyl)-3-methylidene-1,5,9-triazacyclododecan-1-yl)sulfonyl]-N,N-dimethylaniline] | 60.6 | < 4.60 | 68.3 | 65.8 | 67.3 | < 4.60 | < 4.60 | 6.75 |  |  |  |  |  |  |  | 
CN(C)c1ccc(S(=O)(=O)N2C/C=C\CN(S(=O)(=O)N3CCC(c4ccccc4)CC3)CCCN(CC3CCCCC3)CCC2)cc1 [B8, 4-{[(11Z)-5-(cyclohexylmethyl)-9-[(4-phenylpiperidin-1-yl)sulfonyl]-1,5,9-triazacyclotridec-11-en-1-yl]sulfonyl}-N,N-dimethylaniline] |  |  |  |  |  |  |  |  | 22.1 | < 4.60 | 17.1 | 15.5 | 23.8 | < 4.60 | < 4.60 | < 4.60
CN(C)c1ccc(S(=O)(=O)N2CCCN(CC3CCCCC3)CCCN(S(=O)(=O)N3CCCC3)CC3(CC3)C2)cc1 [A23, 4-{[9-(cyclohexylmethyl)-13-(pyrrolidine-1-sulfonyl)-5,9,13-triazaspiro[2.11]tetradecan-5-yl]sulfonyl}-N,N-dimethylaniline] | 0.04 | < 4.60 | 0.17 | 0.03 | 0.13 | < 4.60 | < 4.60 | 6.12 |  |  |  |  |  |  |  | 
C=C1CN(S(=O)(=O)c2ccc(N(C)C)cc2)CCCN(CC2CCCCC2)CCCN(S(=O)(=O)N2CCc3cc(OC)ccc3C2)C1 [A71, 4-{[9-(cyclohexylmethyl)-5-[(6-methoxy-1,2,3,4-tetrahydroisoquinolin-2-yl)sulfonyl]-3-methylidene-1,5,9-triazacyclododecan-1-yl]sulfonyl}-N,N-dimethylaniline] | 5.55 | < 4.60 | 11.5 | 6.75 | 17.2 | 5.11 | 5.70 | 7.20 |  |  |  |  |  |  |  | 

The next lines start with the values.

Liver Microsome Stability-% Left after 30 min w/ NADPH (%) Human ([1]; human, 30 min, NADPH) [%] | pEC50 [2, 9] | Liver Microsome Stability-% Left after 30 min w/ NADPH (%) Mouse ([3]; mouse, 30 min, NADPH) [%] | Liver Microsome Stability-% Left after 30 min w/ NADPH (%) Monkey ([4]; monkey, 30 min, NADPH) [%] | Liver Microsome Stability-% Left after 30 min w/ NADPH (%) Rat ([5]; rat, 30 min, NADPH) [%] | pEC50 [6, 10] | pIC50 ([7]; 293FRT/TO) | pIC50 ([8]; 293FRT/TO) | Liver Microsome Stability-% Left after 30 min w/ NADPH (%) Human ([1]; human liver microsomes, 30 min w/ NADPH) [%] | pEC50 ([2]; U266, Celltiter-Glo) | Liver Microsome Stability-% Left after 30 min w/ NADPH (%) Mouse ([3]; mouse liver microsomes, 30 min w/ NADPH) [%] | Liver Microsome Stability-% Left after 30 min w/ NADPH (%) Monkey ([4]; monkey liver microsomes, 30 min w/ NADPH) [%] | Liver Microsome Stability-% Left after 30 min w/ NADPH (%) Rat ([5]; rat liver microsomes, 30 min w/ NADPH) [%] | pEC50 ([6]; H929, Celltiter-Glo) | pIC50 ([7]; Dox inducible, 293FRT/TO cells) | pIC50 ([8]; Dox inducible, 293FRT/TO cells) | Structure (SMILES)
26.7 | < 4.60 | 28 | 23.6 | 34.7 | 5.21 | 5.51 | 7.21 |  |  |  |  |  |  |  |  | C=C1CN(S(=O)(=O)c2ccc(N(C)C)cc2)CCCN(CC2CCCCC2)CCCN(S(=O)(=O)N2CCc3cccc(Cl)c3C2)C1 [A51, 4-({5-[(8-chloro-1,2,3,4-tetrahydroisoquinolin-2-yl)sulfonyl]-9-(cyclohexylmethyl)-3-methylidene-1,5,9-triazacyclododecan-1-yl}sulfonyl)-N,N-dimethylaniline]
0.12 | < 4.60 | 0.32 | 0.2 | 4.16 | < 4.60 | < 4.60 | 6.36 |  |  |  |  |  |  |  |  | CN(C)c1ccc(S(=O)(=O)N2CCCN(CC3CCCCC3)CCCN(S(=O)(=O)N3CCCCCC3)CC3(CC3)C2)cc1 [A25, 4-{[13-(azepane-1-sulfonyl)-9-(cyclohexylmethyl)-5,9,13-triazaspiro[2.11]tetradecan-5-yl]sulfonyl}-N,N-dimethylaniline]
53.1 | < 4.60 | 73.4 | 57.8 | 78 | < 4.60 | 5.06 | 6.81 |  |  |  |  |  |  |  |  | C=C1CN(S(=O)(=O)c2ccc(N(C)C)cc2)CCCN(CC2CCCCC2)CCCN(S(=O)(=O)N2CCC(C3CCCCC3)CC2)C1 [A65, 4-{[9-(cyclohexylmethyl)-5-[(4-cyclohexylpiperidin-1-yl)sulfonyl}-3-methylidene-1,5,9-triazacyclododecan-1-yl]sulfonyl}-N,N-dimethylaniline]
33.8 | < 4.60 | 34.6 | 30.5 | 42.4 | 5.72 | 6.02 | 7.58 |  |  |  |  |  |  |  |  | C=C1CN(S(=O)(=O)c2ccc(N(C)C)cc2)CCCN(CC2CCCCC2)CCCN(S(=O)(=O)N2CCc3c(Cl)cccc3C2)C1 [A54, 4-({5-[(5-chloro-1,2,3,4-tetrahydroisoquinolin-2-yl)sulfonyl]-9-(cyclohexylmethyl)-3-methylidene-1,5,9-triazacyclododecan-1-yl}sulfonyl)-N,N-dimethylaniline]
0.14 | < 4.60 | 1.77 | 0.11 | 0.62 | 5.08 | 5.00 | 6.74 |  |  |  |  |  |  |  |  | CC1CCCN(S(=O)(=O)N2CCCN(CC3CCCCC3)CCCN(S(=O)(=O)c3ccc(N(C)C)cc3)CC3(CC3)C2)C1 (stereo not drawn) [A21, 4-{[9-(cyclohexylmethyl)-13-[(3-methylpiperidin-1-yl)sulfonyl]-5,9,13-triazaspiro[2.11]tetradecan-5-yl]sulfonyl}-N,N-dimethylaniline]
47.6 | < 4.60 | 43.8 | 38 | 54 | < 4.60 | 4.90 | 6.88 |  |  |  |  |  |  |  |  | CC1CN(S(=O)(=O)c2ccc(N(C)C)cc2)CCCN(CC2CCCCC2)CCCN(S(=O)(=O)N2CCC(c3ccccc3)CC2)C1 (stereo not drawn) [A44, 4-{[9-(cyclohexylmethyl)-3-methyl-5-[(4-phenylpiperidin-1-yl)sulfonyl]-1,5,9-triazacyclododecan-1-yl]sulfonyl}-N,N-dimethylaniline hydrochloride]
0.05 | 4.66 | 0.24 | 0.08 | 0.1 | < 4.60 | < 4.60 | 6.49 |  |  |  |  |  |  |  |  | CN(C)c1ccc(S(=O)(=O)N2CCCN(CC3CCCCC3)CCCN(S(=O)(=O)N3CCCCC3)CC3(CC3)C2)cc1 [A19, 4-((9-(cyclohexylmethyl)-13-(piperidin-1-ylsulfonyl)-5,9,13-triazaspiro[2.11]tetradecan-5-yl)sulfonyl)-N,N-dimethylaniline hydrochloride]
